The subject of data set [1] is CD4+ Tconv cells, CD8 T cells and NK cells. Kind of data set: Effector T cell and NK cell proliferation and expansion in mice after a single subcutaneous injection (Example 9). The format is in vivo, mouse. As to conditions: 0.3 mg/kg single s.c., C57/BL6 mice. Here is the method:
(§1) IL-2 variant Fc fusion proteins were administered to mice and their ability to preferentially proliferate and expand regulatory T cells (CD4+CD25+FoxP3+ T cells) over effector T cells and NK cells were determined in vivo.
(§2) Female C57/BL6 mice (7-week old) were received from Charles River Laboratory and acclimated in house for at least 7 days before the study. Vehicle (PBS), 0.3 mg/kg of each test compounds, or IL-2 benchmark compounds were subcutaneously administered to mice on day 0. Peripheral blood samples were collected into heparin-treated tubes on days 3, 5 and 7 post-treatment. Each group contained 6 mice and baseline blood was collected 2 days prior to the treatment (day −2). After red blood cell lysis, total viable mononuclear blood cells were counted by trypan blue dead cell exclusion method and proceeded to intracellular staining for immune cell phenotype and Ki67 proliferation markers using flow cytometric analysis. Cells were stained separately with two panels of antibodies as listed: 1) anti-mouse Foxp3-FITC, Ki67-PE, anti-mouse CD25-APC and anti-mouse CD4-Percpcy5.5 (1:50 dilution) for CD4+T-regulatory cells (Treg); 2) anti-mouse CD3-FITC, Ki67-PE, anti-mouse CD335-APC and anti-mouse CD8-Percpcy5.5 (1:50 dilution) for CD8+T and NK cells.

The subject of data set [2] is Treg cells. Kind of data set: Treg proliferation and expansion in mice after a single subcutaneous injection (Example 9). As to conditions: 0.3 mg/kg single s.c., C57/BL6 mice; for stimulation of Treg cell proliferation and expansion in vivo (in words): days 3, 5, 7. It is filed as in vivo, mouse. The protocol:
as §1, §2

The subject of data set [3] is KLH-induced DTH in Balb/C mice. Kind of data set: KLH-induced delayed-type hypersensitivity (DTH) mouse model, ear thickness. It is filed as in vivo. As to conditions: 72 hours after KLH challenge, 4 consecutive daily dosing at 5 mg/kg i.p. Here is the method:
The ability of Treg cells induced by IL-2 variants to suppress T cell antigen-driven inflammation in vivo was assessed in a model of delayed-type hypersensitivity (DTH). Female Balb/C mice (7-week old) were acclimated in house for 7 days and randomized into groups. Subcutaneous administration of vehicle (PBS), P-0511 at either 0.1 mg/kg or 0.3 mg/kg was initiated on day −2 and was given either once every 3 days (Q3D) for three injections or once every 5 days (Q5D) for two injections. Mice were then sensitized with a subcutaneous administration of 100 μg keyhole limpet hemocyanin (KLH) in 200 μl saline on day 0. For Q3D dosing, two more subcutaneous injections of PBS or P-0511 (0.1 or 0.3 mg/kg) were administered on days 1, and 4; for Q5D dosing, one additional s.c. injection of PBS, 0.1 or 0.3 mg/kg P-0511 was administered on day 3. Mice received an intradermal challenge of KLH (5 μg in 10 μl saline) in right ear on day 5. Right ear thickness was measured using a caliper on day 5 prior KLH challenge and daily from day 6 to day 9 corresponding to 24 h, 48 h, 72 h and 96 h post KLH challenge. One group of mice also received 5 mg/kg daily i.p. treatment of dexamethasone from day 5 to day 8 as a positive control.
Kinetics of the DTH response using the change in ear thickness relative to baseline values (Δ ear thickness) at various times after KLH challenge was illustrated in FIG. 23.

Data set [4] relates to STAT5 phosphorylation in CD4+ Treg cells. Kind of data set: STAT5 phosphorylation in CD4+ Treg cells, human PBMC assay by FACS. The format is cell-based. The text has this: (§3) Single amino acid substitutions were introduced to IL-2 at positions corresponding to amino acids interacting with receptor subunit(s) β or γ or βγ. These substitutions were aimed to reduce IL-2 signaling capacity through the intermediate affinity IL-2Rβγ complex and confer signaling specificity from the high affinity IL-2Rαβγ. IL-2 variants containing single amino acid substitutions were examined for their ability to differentially stimulate STAT5 phosphorylation in CD4 positive Treg and Tconv cells. STAT5 is known to be involved in the downstream signaling cascade upon IL-2 binding to the transmembrane IL-2 receptors. The phosphorylation of STAT5 in defined lymphocyte subpopulations was measured using fresh human peripheral blood mononuclear cells (PBMC) and the forkhead transcription factor FOXP3 was used to identify the Treg population in FACS analysis.
(§4) Briefly, human PBMC were isolated by Ficoll-Hypaque centrifugation from the buffy coat of a healthy donor. PBMC were starved in serum-free MACS buffer at 4° C. for 1 hour. 2×10^5 PBMC were then treated with serial dilutions of test compounds for 30 min at 37° C. Cells were fixed and permeabilized with Foxp3/Transcription Factor Staining Buffer Set (EBIO) by incubating with 1× Foxp3 fixation/permeabilization working solution for 30 minutes and washing with 1× permeabilization buffer. Cells were additionally fixed with Cytofix buffer and permeabilized with Perm Buffer III (BD Biosciences) and then washed. After blocking Fc receptors by adding human TruStain FcX (1:50 dilution), cells were stained with a mixture of anti-CD25-PE, anti-FOXP3-APC, anti-pSTAT5-FITC, and anti-CD4-PerCP-Cy5.5 antibodies at concentrations recommended by the manufacturer for 45 minutes at room temperature. Cells were collected by centrifugation, washed, resuspended in FACS buffer, and analyzed by flow cytometry. The flow cytometry data was gated into CD4+/Foxp3+/CD25^high and CD4+/Foxp3−/CD25^low groups for the Treg and CD4 conventional T cell subsets, respectively. Data are expressed as a percent of pStat5 positive cells in gated population.

Data set [5] can be described thus: Aggregate content by size-exclusion chromatography after Protein A purification. It is filed as physicochemical. As to conditions: after MabSelectSure. Here is the method:
For affinity chromatography each supernatant was loaded on a HiTrap MabSelectSure column (CV=5 mL, GE Healthcare) equilibrated with 25 ml phosphate buffered saline, pH 7.2 (ThermoFisher). Unbound protein was removed by washing with 5 column volumes PBS, pH 7.2 and target protein was eluted with 25 mM sodium citrate, 25 mM sodium chloride, pH 3.2. Protein solution was neutralized by adding 3% of 1 M Tris pH 10.2. Ion exchange chromatography or mix-mode chromatography, including but not limited to CaptoMMC (GE Healthcare), ceramic hydroxyapatite, or ceramic fluoroapatite (Bio-Rad) was also utilized to polish the Protein A material as needed. Target protein was concentrated with an Amicon®Ultra-15 concentrator 10 KDa NMWC (Merck Millipore Ltd.)
The purity and molecular weight of the purified constructs were analyzed by SDS-PAGE with and in the absence of a reducing agent and staining with Coomassie (Imperial® Stain). The NuPAGE® Pre-Cast gel system (4-12% or 8-16% Bis-Tris, ThermoFisher) was used according to the manufacturer's instructions. The protein concentration of purified protein samples was determined by measuring the UV absorbance at 280 nm (Nanodrop Spectrophotometer, ThermoFisher) divided by the molar extinction coefficient calculated on the basis of the amino acid sequence. The aggregate content of the constructs was analyzed on an Agilent 1200 high-performance liquid chromatography (HPLC) system. Samples were injected onto an AdvanceBio size-exclusion column (300 Å, 4.6×150 mm, 2.7 μm, LC column, Agilent) using 150 mM sodium phosphate, pH 7.0 as the mobile phase at 25° C.
(§5) S125I substitution was thus introduced into a number of IL-2 variant Fc fusion molecules. The constructs harboring Ile-125 substitution in IL-2 were expressed using the same vector and in the same culturing conditions as their Ser-125 counterparts and purified using MabSelectSure. The expression level in mg/L and purity assessed by SEC chromatography in aggregation % of exemplary molecules are summarized in Table 6. The two molecules in the same row of Table 6 share the same other amino acid substitution(s) and differ only at residue 125 with either serine or isoleucine. As an example, the SEC chromatogram and SDS-PAGE pictures of P-0447 (SEQ ID NO: 173) and its Ile-125 counterpart P-0511 (SEQ ID NO: 213) were further illustrated in FIGS. 1D and 1E.
A general note: SEC sorts molecules by how far they enter the pores of the column.

Data set [6] in a line: Transient expression level of IL-2 Fc fusion constructs in HEK-293F cells. Here is the method:
The constructs were produced by co-transfecting HEK293-F cells growing in suspension with the mammalian expression vectors using polyethylenimine (PEI, 25,000 MW linear, Polysciences). If there were two or more expression vectors, the vectors were transfected in a 1:1 ratio. For transfection, HEK293 cells were cultivated in serum free FreeStyle™ 293 Expression Medium (ThermoFisher). For production in 1000 ml shaking flasks (working volume 330 mL), HEK293 cells were seeded at a density of 0.8×10^6 cells/ml 24 hours before transfection. A total of 330 μg of DNA expression vectors were mixed with 16.7 ml Opti-mem Medium (ThermoFisher). After addition of 0.33 mg PEI diluted in 16.7 ml Opti-mem Medium, the mixture was vortexed for 15 sec and subsequently incubated for 10 min at room temperature. The DNA/PEI solution was then added to the cells and incubated at 37° C. in an incubator with 8% CO2. Sodium butyrate (Millipore Sigma) was added to the cells at day 4 at a final concentration of […] to help sustain protein expression. After 6 days cultivation, supernatant was collected for purification by centrifugation for 20 min at 2200 rpm. The solution was sterile filtered (0.22 μm filter, Corning). The secreted protein was purified from cell culture supernatants using Protein A affinity chromatography.
as §5

Data set [7] has as its system CD4+ Treg vs CD4+ Tconv cells. Kind of data set: STAT5 phosphorylation, selectivity / activity profile Treg versus CD4+ Tconv cells, human PBMC. The format is cell-based.
Text: as §3, §4
The S125I substitution was then introduced into wild-type IL-2 or IL-2 variants that already harbored 1 or 2 mutations targeting receptor subunit(s) β or γ or βγ. The resulting IL-2 variants containing isoleucine at position 125 were tested for their ability to stimulate STAT5 phosphorylation in Treg and Tconv cells in comparison with their respective serine counterparts at position 125. Table 7 lists the potency and selectivity of IL-2 variants in Treg cells. The two molecules in the same row of Table 7 share the same other amino acid substitution(s) and differ only at position 125 with either serine or isoleucine.

In data set [8] the test system is Treg cells. Kind of data set: Treg pharmacodynamics in mice after repeated administration Q3D (Example 11). The format is in vivo, mouse. As to conditions: after three consecutive Q3D treatments, 0.3 mg/kg s.c. The protocol:
Female Balb/C mice (7-week old) were acclimated in house for 5-7 days before the study. Vehicle (PBS), 0.3 mg/kg of P-0511, P-0512, P-0531, or Benchmark-1 compound were subcutaneously administered to mice (n=5/group) on days 0, 3, and 6. On days 3 and 9, three days after the first injection and multiple (3) injections, respectively, peripheral blood was collected. Based on earlier in vivo experiments, Treg cell activation, proliferation, and expansion were expected to peak on day 3, and thus three days post injection was selected for data collection and analysis. Changes in blood lymphocyte activation, proliferation, and expansion were measured by flow cytometry. P-0531 is the S125I equivalent of the wild type IL-2 fusion protein. The Benchmark-1 contains V91K mutation.

The subject of data set [9] is STAT5 phosphorylation in CD4+ Tconv cells. Kind of data set: STAT5 phosphorylation in CD4+ Tconv cells, human PBMC assay by FACS. The format is cell-based.
Text: as §3, §4
A general note: A flow cytometer gives signals particle by particle.

“Also recorded” adds a separate entry of the source.

“P-0514: IL-2 L19Q/S125I/Q126E Fc fusion, SEQ ID NO: 216”: in data set [1], the “expansion of CD4+ Tconv cells, CD8 T cells or NK cells in vivo” value is given as “No significant expansion”. Further, the “Treg/Tconv ratio (Ki67 stimulation and cell counts)” value in the data set with Treg cells [2] (all measured time points) is on record as “most beneficial Treg/Tconv ratio”. Further, the “stimulation of Treg cell proliferation and expansion in vivo (in words)” value with Treg cells [2] is on record as “stronger in vivo efficacy”.

As to `C[C@@H]1C[C@H]2[C@@H]3CCC4=CC(=O)C=C[C@]4(C)[C@@]3(F)[C@@H](O)C[C@]2(C)[C@@]1(O)C(=O)CO` [dexamethasone, reference compound], the “inhibition of KLH-induced inflammatory response” value in data set [3] is around 85%.

Turning to “P-0531: IL-2 S125I Fc fusion, S125I equivalent of wild type, SEQ ID NO: 167”, the “STAT5 phosphorylation activity in Treg cells (in words)” value in data set [4] is on record as “slightly increased potency”. The “Aggregation % (SEC)” value in [5] (Isoleucine-125 constructs) was 0.7%. For the same compound, the “Expression” value in data set [6] (Isoleucine-125 constructs) was 29.5 mg/L. Moreover, in data set [7], the “activity profile / selectivity window Treg over CD4+ Tconv (in words)” value is given as “without altering Treg selectivity”. The “Treg Selectivity” value in [7] (Isoleucine-125 constructs) is reported as “Yes”. Also, in the data set on Treg cells [8], the “% Treg over total CD4 T cells or over total lymphocytes” value was “declined drastically to near control levels”.

As to “Benchmark-3: benchmark Fc-IL-2 variant fusion protein containing N88D, SEQ ID NO: 199 [reference compound]”, the “Ki67 stimulation on CD8 T cells and NK cells in vivo (in words)” value in [1] is reported as “low effects”. Also, the “stimulation of Treg cell proliferation and expansion in vivo (in words)” value in the data set with Treg cells [2] was “not efficacious”.

As for “P-0419: IL-2 L19Y/Q126E Fc fusion, SEQ ID NO: 105”, in data set [4], the “STAT5 phosphorylation activity in Treg cells (in words)” value is recorded as “mainly reserved; also recorded: retained comparable potency; also recorded: significant potency”. In addition, the “Aggregation % (SEC)” value in [5] (Serine-125 constructs) is given as 33.8%. Also, the “Expression” value in data set [6] (Serine-125 constructs) is 6.7 mg/L. The “activity profile / selectivity window Treg over CD4+ Tconv (in words)” value in data set [7] is “significantly widened; also recorded: very comparable to that of the Benchmark-1 molecule; also recorded: comparable activity profile to Benchmark-1”. The “Treg Selectivity” value in data set [7] (Serine-125 constructs) was “Yes”. The “STAT5 phosphorylation activity in CD4+ Tconv cells (in words)” value in data set [9] is “varied significantly; also recorded: largely abolished”.

The record behind these values is US20220170028A1, “NOVEL INTERLEUKIN-2 VARIANTS AND BIFUNCTIONAL FUSION MOLECULES THEREOF” (Cugene Inc, priority 2019, published 2022).
